Assay results from patent US7160889B2, “Quinazoline compounds” (AstraZeneca AB, priority 2000, dated 2007).

Biological target: T1, KDR receptor (Homo sapiens, UniProt P35968)
T1 construct: made in house; host or cells: insect cells (e.g. Spodoptera frugiperda Sf21, baculovirus)
Assay: In vitro receptor tyrosine kinase inhibition test (a), KDR receptor
Assay type: biochemical
Settings: using the KDR receptor
Source text: (a) In vitro Receptor Tyrosine Kinase Inhibition Test
This assay determines the ability of a test compound to inhibit tyrosine kinase activity. DNA encoding VEGF, FGF or EGF receptor cytoplasmic domains may be obtained by total gene synthesis (Edwards M, International Biotechnology Lab 5(3), 19–25, 1987) or by cloning. These may then be expressed in a suitable expression system to obtain polypeptide with tyrosine kinase activity. […] In the case of the VEGF receptor Flt (Genbank accession number X51602), a 7 kb DNA fragment encoding most of the cytoplasmic domain, commencing with methionine 783 and including the termination codon, described by Shibuya et al (Oncogene, 1990, 5: 519–524), was isolated from cDNA and cloned into a baculovirus transplacement vector (for example pAcYM1 (see The Baculovirus Expression System: A Laboratory Guide, L. A. King and R. D. Possee, Chapman and Hall, 1992) or pAc360 or pBlueBacHis (available from Invitrogen Corporation)). This recombinant construct was co-transfected into insect cells (for example Spodoptera frugiperda 21(Sf21)) with viral DNA (eg Pharmingen BaculoGold) to prepare recombinant baculovirus. […]

T1 sequence (P35968 786-1356 limits assumed): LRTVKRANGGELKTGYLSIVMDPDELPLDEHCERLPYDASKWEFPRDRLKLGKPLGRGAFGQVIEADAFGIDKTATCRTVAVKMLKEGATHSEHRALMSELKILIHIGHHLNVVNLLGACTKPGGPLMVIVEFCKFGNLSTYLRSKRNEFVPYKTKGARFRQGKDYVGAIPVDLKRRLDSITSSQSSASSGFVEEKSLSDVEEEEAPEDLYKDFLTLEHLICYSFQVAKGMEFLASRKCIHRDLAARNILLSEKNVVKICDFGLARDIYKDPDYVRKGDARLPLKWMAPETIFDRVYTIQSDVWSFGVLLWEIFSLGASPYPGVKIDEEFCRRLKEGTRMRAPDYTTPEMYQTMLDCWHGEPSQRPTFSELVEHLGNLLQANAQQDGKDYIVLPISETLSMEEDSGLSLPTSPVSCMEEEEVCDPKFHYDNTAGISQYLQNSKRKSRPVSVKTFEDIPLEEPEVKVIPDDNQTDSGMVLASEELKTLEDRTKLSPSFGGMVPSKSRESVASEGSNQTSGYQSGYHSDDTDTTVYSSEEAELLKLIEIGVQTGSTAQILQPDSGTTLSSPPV

COc1cc2c(Nc3ccc(Br)cc3F)ncnc2cc1OCC(O)CN1CCN(C)CC1 (stereo not shown) [Example 1]
IC50: 15 to 50 nM
